Source: article PMC12521441 (Frontiers in Cellular and Infection Microbiology, 2025)

Assays:
[1] = target: T1, JEV helicase (Japanese encephalitis virus, UniProt P32886); experiment: Isothermal titration calorimetry, JEV helicase; assay type: binding; details: ITC, 16°C
T1 sequence (P32886 1676-2123 limits assumed): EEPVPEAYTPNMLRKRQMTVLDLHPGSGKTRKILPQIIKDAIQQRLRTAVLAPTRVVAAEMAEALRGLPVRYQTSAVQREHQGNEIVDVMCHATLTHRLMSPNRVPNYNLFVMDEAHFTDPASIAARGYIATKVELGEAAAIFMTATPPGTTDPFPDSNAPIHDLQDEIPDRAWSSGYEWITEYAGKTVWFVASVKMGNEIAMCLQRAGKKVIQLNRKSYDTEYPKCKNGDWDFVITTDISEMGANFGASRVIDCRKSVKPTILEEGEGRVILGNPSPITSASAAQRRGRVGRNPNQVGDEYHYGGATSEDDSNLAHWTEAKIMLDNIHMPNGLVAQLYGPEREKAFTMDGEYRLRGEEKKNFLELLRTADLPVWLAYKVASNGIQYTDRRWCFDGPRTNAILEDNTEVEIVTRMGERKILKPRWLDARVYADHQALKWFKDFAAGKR

[2] = target: TBEV helicase (Tick-borne encephalitis virus, UniProt Q01299); experiment: biochemical; assay type: binding
[3] = target: DENV2 helicase (Dengue virus type 2, UniProt P29990); experiment: Isothermal titration calorimetry, DENV2 helicase; assay type: binding; details: ITC, 16°C
[4] = target: T2, ZIKV helicase (Zika virus, UniProt Q32ZE1); experiment: Isothermal titration calorimetry, ZIKV helicase; assay type: binding; details: ITC, 16°C
T2 sequence (Q32ZE1 1670-2115 limits assumed): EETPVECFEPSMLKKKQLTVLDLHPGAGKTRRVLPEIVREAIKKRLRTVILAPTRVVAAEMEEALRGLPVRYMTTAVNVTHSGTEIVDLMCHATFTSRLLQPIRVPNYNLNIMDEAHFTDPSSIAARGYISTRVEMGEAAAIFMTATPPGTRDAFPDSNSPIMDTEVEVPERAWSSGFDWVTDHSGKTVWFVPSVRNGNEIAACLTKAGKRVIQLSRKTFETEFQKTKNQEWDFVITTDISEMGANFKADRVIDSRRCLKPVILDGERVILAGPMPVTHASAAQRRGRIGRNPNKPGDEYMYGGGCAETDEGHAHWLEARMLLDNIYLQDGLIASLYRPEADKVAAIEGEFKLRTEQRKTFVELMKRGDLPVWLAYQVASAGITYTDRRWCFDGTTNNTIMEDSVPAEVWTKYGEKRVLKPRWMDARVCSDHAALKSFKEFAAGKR

[5] = rats, radiolabeled Zafirlukast; ref Zeng et al., 2020; cited from earlier work
[6] = target: YFV helicase (Yellow fever virus, UniProt P03314); experiment: biochemical; assay type: binding
[7] = target: DENV4 helicase (Dengue virus type 4, UniProt Q2YHF0); experiment: Isothermal titration calorimetry, DENV4 helicase; assay type: binding; details: ITC
[8] = at higher doses, preclinical models; ref Finnerty et al., 1992; cited from earlier work

DENV4 helicase, sequence (Q2YHF0 1645-2092 limits assumed): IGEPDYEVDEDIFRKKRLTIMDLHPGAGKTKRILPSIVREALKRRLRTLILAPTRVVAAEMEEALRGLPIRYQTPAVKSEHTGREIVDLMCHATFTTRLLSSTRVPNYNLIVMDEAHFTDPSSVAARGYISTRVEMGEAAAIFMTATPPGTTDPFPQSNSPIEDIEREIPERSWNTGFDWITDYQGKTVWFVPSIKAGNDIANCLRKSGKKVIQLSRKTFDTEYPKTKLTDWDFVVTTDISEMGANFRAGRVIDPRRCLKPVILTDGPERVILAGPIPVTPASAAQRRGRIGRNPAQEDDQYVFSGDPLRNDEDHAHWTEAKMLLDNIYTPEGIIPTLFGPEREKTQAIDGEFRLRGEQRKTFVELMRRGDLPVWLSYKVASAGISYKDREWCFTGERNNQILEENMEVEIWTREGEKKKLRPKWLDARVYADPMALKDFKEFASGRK
DENV2 helicase, sequence (P29990 1646-2093 limits assumed): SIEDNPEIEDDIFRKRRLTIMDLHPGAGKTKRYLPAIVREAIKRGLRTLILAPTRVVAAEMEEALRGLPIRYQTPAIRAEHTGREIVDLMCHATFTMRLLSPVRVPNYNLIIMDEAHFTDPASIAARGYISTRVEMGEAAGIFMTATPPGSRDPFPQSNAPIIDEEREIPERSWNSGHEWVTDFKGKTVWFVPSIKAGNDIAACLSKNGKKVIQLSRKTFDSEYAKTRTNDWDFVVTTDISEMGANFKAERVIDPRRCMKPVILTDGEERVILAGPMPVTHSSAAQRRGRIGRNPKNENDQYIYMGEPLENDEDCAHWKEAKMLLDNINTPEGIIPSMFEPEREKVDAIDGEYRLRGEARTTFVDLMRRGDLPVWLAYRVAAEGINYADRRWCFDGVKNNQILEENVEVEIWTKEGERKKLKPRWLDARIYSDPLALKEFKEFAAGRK
YFV helicase, sequence (P03314 1660-2107 limits assumed): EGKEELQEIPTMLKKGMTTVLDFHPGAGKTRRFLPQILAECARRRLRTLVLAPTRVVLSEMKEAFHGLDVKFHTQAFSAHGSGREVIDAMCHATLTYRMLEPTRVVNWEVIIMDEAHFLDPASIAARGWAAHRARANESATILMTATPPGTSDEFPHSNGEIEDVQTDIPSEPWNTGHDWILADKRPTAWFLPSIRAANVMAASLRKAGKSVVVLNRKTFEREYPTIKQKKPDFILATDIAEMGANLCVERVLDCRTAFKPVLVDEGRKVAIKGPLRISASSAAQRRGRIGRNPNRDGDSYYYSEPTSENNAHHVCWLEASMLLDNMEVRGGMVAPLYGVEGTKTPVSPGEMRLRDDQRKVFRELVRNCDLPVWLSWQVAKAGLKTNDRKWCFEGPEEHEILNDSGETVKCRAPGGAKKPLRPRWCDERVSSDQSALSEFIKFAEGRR
TBEV helicase, sequence (Q01299 1666-2110 limits assumed): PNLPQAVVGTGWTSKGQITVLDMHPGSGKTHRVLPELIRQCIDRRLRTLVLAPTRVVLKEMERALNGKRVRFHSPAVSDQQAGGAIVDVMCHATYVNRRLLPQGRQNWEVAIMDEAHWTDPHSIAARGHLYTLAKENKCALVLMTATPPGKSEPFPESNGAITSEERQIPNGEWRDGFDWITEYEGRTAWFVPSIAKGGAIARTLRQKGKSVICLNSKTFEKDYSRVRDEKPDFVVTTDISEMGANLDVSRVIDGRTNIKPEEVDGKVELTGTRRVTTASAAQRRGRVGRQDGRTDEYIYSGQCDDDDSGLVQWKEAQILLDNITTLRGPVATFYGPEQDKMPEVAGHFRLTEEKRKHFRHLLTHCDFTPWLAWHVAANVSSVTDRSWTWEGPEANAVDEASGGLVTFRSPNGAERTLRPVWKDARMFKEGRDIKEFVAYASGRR

With `COc1cc(C(=O)NS(=O)(=O)c2ccccc2C)ccc1Cc1cn(C)c2ccc(NC(=O)OC3CCCC3)cc12` [Zafirlukast] as the molecule, how does the Kd [1] read?
Its Kd is 199 µM.

And the Kd [2]?
Its Kd is 361 µM.

And the Kd [3]?
Its Kd is 2.73 µM.

What about the Kd [4] of the same molecule?
Its Kd is 13.9 µM.

What about the “Distribution across the blood-brain barrier” value [5] of the same molecule?
Its value is “minimal distribution across the blood–brain barrier”.

What about the Kd [6] of the same molecule?
The Kd was 6.59 µM.

And the Kd [7]?
The Kd was 1.57 µM.

What about the Tumor incidence [8] of the same molecule?
Its Tumor incidence is “increased incidence of hepatocellular tumors, histiocytic sarcoma, and bladder cancer”.
